Measured values from US10533992B2, “Method for screening for sunlight protection functional material and method for evaluating sunlight protection effect” (AMOREPACIFIC CORPORATION, priority 2015, dated 2020).

Key:
[1] = test system: HBD-1, HBD-2, HBD-3, LL-37, psoriasin, dermcidin, and RNase 7; test: AMP expression (Q-RT-PCR) in keratinocytes treated with Poly I:C and the scavengers PTIO or NAC, with or without blue/violet light; assay type: cell-based, human
Description: (§1) First, according to a commercially secured and recommended method, the human epidermal neonatal keratinocytes used in the present invention were purchased from Lonza, Inc. (Walkersville, Md., US), subcultured, and then cultured in a CO2 incubator under the conditions of 37° C. and 5% CO2. The culture medium was prepared according to the guideline provided by Lonza, Inc. KGM-2 Bullet kit: BPE (Bovine pituitary extract) 2 ml, hEGF (human epidermal growth factor) 0.5 ml, insulin 0.5 ml, hydrocortisone 0.5 ml, transferrin 0.5 ml, epinephrine 0.5 ml, and gentamycin sulfate+amphotericin-B(GA-1000) 0.5 ml were added to 500 ml of KBM-2 (Clonetics CC-3103) medium.
(§2) Subsequently, blue/violet light of a wavelength from 400 to 500 nm was radiated to the medium in which human epidermal neonatal keratinocytes is cultured (10 J/cm^2). […]
(§3) Then, the separated RNA was once again purified by using an RNA kit (QIAGEN RNeasy kt, QIAGEN, Valencia, Calif.), and then the quality of the RNA was examined by using Agilent 2100 BioAnalyzer (Agilent Technologies, Santa Clara, Calif., USA). The Superscript Reverse Transcriptase (RT) kit (Invitrogen, Carlsbad, Calif.) was used to synthesize cDNA from the RNA, and the cDNA was quantitatively analyzed through a real time-reverse transcription polymerase chain reaction (Q-RT-PCR). […]

[2] = test system: HBD-1, HBD-2, HBD-3, LL-37, psoriasin, dermcidin, and RNase7; test: AMP expression (Q-RT-PCR) in keratinocytes treated with Poly I:C and flagellin, with or without blue/violet light; assay type: cell-based; settings: human epidermal neonatal keratinocytes; Poly I:C and flagellin treatment; FIGS. 3a to 3g
Description: as §1, §2, §3

Row | Compound | expression level of the AMPs on blue/violet light radiation ([1]; Poly I:C treated keratinocytes, blue/violet light 10 J/cm^2, scavenger treated group) | expression level of HBD-1, HBD-2, HBD-3, LL-37, psoriasin, dermcidin, and RNase7 ([1]; human epidermal neonatal keratinocytes, Poly I:C treatment, FIGS. 4a to 4g) | expression level of HBD-1, HBD-2, HBD-3, LL-37, psoriasin, dermcidin, and RNase7 [2]
1 | CC1(C)N([O])C(c2ccc(C(=O)[O-])cc2)=[N+]([O-])C1(C)C.[K+] [PTIO, 2-(4-Carboxyphenyl)-4,4,5,5-tetramethylimidazoline-1-oxyl-3-oxide potassium salt] | not reduced |  | 
2 | Poly I:C |  | increased | increased
3 | flagellin |  |  | increased
